Results taken from patent publication US9695155B2, “Herbicidal substituted pyrimidinyloxy benzene compounds” (E. I. DU PONT DE NEMOURS AND COMPANY, priority 2013, dated 2017).

Legend:
[1] = test system: corn; experiment: Test A preemergence; assay type: in vivo, Zea mays; conditions: 1000 g ai/ha, 0 to 100 scale, 0 no effect, 100 complete control
In short: (§1)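 Visual 0–100 rating (100 = complete control) taken about 10 d post-treatment relative to untreated checks. Preemergence: directed soil spray on sown loam/sand pots. Postemergence: seedlings 2–10 cm, 1–2 leaf. Non-phytotoxic solvent formulation with surfactant.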

[2] = test system: Italian ryegrass; experiment: Test C postemergence; assay type: in vivo, Lolium multiflorum; conditions: for Plant response rating (0 to 100), Ryegrass, Italian: 16 g ai/ha, 0 is no effect, 100 is complete control; for Plant response rating, Ryegrass, Italian: scale 0 to 100 (0 no effect, 100 complete control)
Text: (§2) Seeds of plant species selected from blackgrass (Alopecurus myosuroides), Italian ryegrass (Lolium multiflorum), wheat, winter (winter wheat, Triticum aestivum), galium (catchweed bedstraw, Galium aparine), corn (Zea mays), large (Lg) crabgrass (Digitaria sanguinalis), giant foxtail (Setaria faberii), johnsongrass (Sorghum halepense), lambsquarters (Chenopodium album), morningglory (Ipomoea coccinea), yellow nutsedge (Cyperus esculentus), pigweed (Amaranthus retroflexus), ragweed (common ragweed, Ambrosia elatior), soybean (Glycine max), barnyardgrass (Echinochloa crus-galli), oilseed rape (Brassica napus), waterhemp (common waterhemp, Amaranthus rudis), kochia (Kochia scoparia), wild oat (Avena fatua), surinam grass (Brachiaria decumbens), foxtail, green (green foxtail, Setaria viridis), goosegrass (Eleusine indica), bromegrass, downy (downy bromegrass, Bromus tectorum), nightshade (eastern black nightshade, Solanum ptycanthum), cocklebur (common cocklebur, Xanthium strumarium), cupgrass, woolly (woolly cupgrass, Eriochloa villosa), bermudagrass (Cynodon dactylon), sunflower, (common oilseed sunflower, Helianthus annuus), Russian thistle (Salsola kali), and velvetleaf (Abutilon theophrasti) were planted into a blend of loam soil and sand and treated preemergence with test chemicals formulated in a non-phytotoxic solvent mixture which included a surfactant.
(§3) At the same time, plants selected from these crop and weed species and also barley, winter (winter barley, Hordeum vulgare), windgrass (Apera spica-venti), chickweed (common chickweed, Stellaria media), deadnettle (henbit deadnettle, Lamium amplexicaule), and canarygrass (littleseed canarygrass, Phalaris minor) were planted in pots containing Redi-Earth® planting medium (Scotts Company, 14111 Scottslawn Road, Marysville, Ohio 43041) comprising spaghnum peat moss, vermiculite, wetting agent and starter nutrients and treated with postemergence applications of test chemicals formulated in the same manner. Plants ranged in height from 2 to 18 cm (1- to 4-leaf stage) for postemergence treatments. Treated plants and controls were maintained in a greenhouse for 13 to 15 days, after which time all species were compared to controls and visually evaluated. Plant response ratings, summarized in Table C, are based on a scale of 0 to 100 where 0 is no effect and 100 is complete control. A dash (-) response means no test result.

[3] = test system: ragweed; experiment: Test C postemergence; assay type: in vivo, Ambrosia elatior; conditions: for Plant response rating (0 to 100), Ragweed: 16 g ai/ha, 0 is no effect, 100 is complete control; for Plant response rating, Ragweed: scale 0 to 100 (0 no effect, 100 complete control)
Text: as §2, §3

[4] = test system: soybean; experiment: Test C preemergence; assay type: in vivo, Glycine max; conditions: for Soybean plant response rating: preemergence
In short: (§4)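 Preemergence: seeds sown in a loam soil–sand blend and sprayed with test chemical in a non-phytotoxic solvent mixture containing surfactant. Postemergence: plants at 2 to 18 cm (1- to 4-leaf stage) in peat-based medium, treated with the same formulation. Greenhouse 13 to 15 days, then visual rating 0 (no effect) to 100 (complete control).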

[5] = test system: velvetleaf; experiment: Test C preemergence; assay type: in vivo, Abutilon theophrasti; conditions: for Velvetleaf plant response rating: preemergence
In short: as §4

[6] = test system: lambsquarters; experiment: Test C postemergence; assay type: in vivo, Chenopodium album; conditions: for Plant response rating (0 to 100), Lambsquarters: 16 g ai/ha, 0 is no effect, 100 is complete control; for Plant response rating, Lambsquarters: scale 0 to 100 (0 no effect, 100 complete control)
Text: as §2, §3

[7] = test system: pigweed; experiment: Test C preemergence; assay type: in vivo, Amaranthus retroflexus; conditions: for Pigweed plant response rating: preemergence
In short: as §4

[8] = test system: yellow nutsedge; experiment: Test C preemergence; assay type: in vivo, Cyperus esculentus; conditions: for Nutsedge, Yellow plant response rating: preemergence
In short: as §4

[9] = test system: wild oat; experiment: Test C postemergence; assay type: in vivo, Avena fatua; conditions: for Plant response rating (0 to 100), Oat, Wild: 16 g ai/ha, 0 is no effect, 100 is complete control; for Plant response rating, Oat, Wild: scale 0 to 100 (0 no effect, 100 complete control)
Text: as §2, §3

[10] = test system: blackgrass; experiment: Test C postemergence; assay type: in vivo, Alopecurus myosuroides; conditions: for Plant response rating (0 to 100), Blackgrass: 16 g ai/ha, 0 is no effect, 100 is complete control; for Plant response rating, Blackgrass: scale 0 to 100 (0 no effect, 100 complete control)
Text: as §2, §3

[11] = test system: pigweed; experiment: Test C postemergence; assay type: in vivo, Amaranthus retroflexus; conditions: for Plant response rating (0 to 100), Pigweed: 16 g ai/ha, 0 is no effect, 100 is complete control; for Plant response rating, Pigweed: scale 0 to 100 (0 no effect, 100 complete control)
Text: as §2, §3

[12] = test system: wheat, winter; experiment: Test C postemergence; assay type: in vivo, Triticum aestivum; conditions: for Plant response rating (0 to 100), Wheat: 16 g ai/ha, 0 is no effect, 100 is complete control; for Plant response rating, Wheat: scale 0 to 100 (0 no effect, 100 complete control)
Text: as §2, §3

[13] = test system: rice; experiment: Test B flooded paddy test; assay type: in vivo, Oryza sativa; conditions: Flood, 250 g ai/ha; 0 to 100 scale where 0 is no effect and 100 is complete control
In short: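 Plants were grown to the 2-leaf stage, then pots were flooded to 3 cm above the soil and compounds were applied directly into the paddy water. That depth was held throughout, and after 13 to 15 days in the greenhouse injury was rated visually against controls on a 0–100 scale (0 no effect, 100 complete control).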

[14] = test system: giant foxtail; experiment: Test A preemergence; assay type: in vivo, Setaria faberii
In short: as §1

[15] = test system: yellow nutsedge; experiment: Test C postemergence; assay type: in vivo, Cyperus esculentus; conditions: for Plant response rating, Nutsedge, Yellow: scale 0 to 100 (0 no effect, 100 complete control)
Text: as §2, §3

[16] = 125 g ai/ha, postemergence, visual rating
[17] = 16 g ai/ha, scale 0 to 100 (0 no effect, 100 complete control)
[18] = 62 g ai/ha, scale 0 (no effect) to 100 (complete control)
[19] = 125 g ai/ha, scale 0 (no effect) to 100 (complete control)
[20] = Preemergence, 31 g ai/ha, scale 0 to 100, 0 no effect, 100 complete control
[21] = Postemergence, 31 g ai/ha, 13 to 15 days

## N#Cc1cn(-c2c(Br)cccc2Oc2ncc(Cl)cn2)nn1 [Compound 116]
[1]
  Plant response rating, Corn: 30
[2]; postemergence
  Plant response rating (0 to 100), Ryegrass, Italian: 5
[2]; [16]
  Plant response rating, Ryegrass, Italian: 5
[2]; Postemergence, 62 g ai/ha
  Plant response rating, Ryegrass, Italian: 5
[3]; postemergence
  Plant response rating (0 to 100), Ragweed: 5
[3]; [16]
  Plant response rating, Ragweed: 70
[3]; Postemergence, 62 g ai/ha
  Plant response rating, Ragweed: 25
[4]; [17]
  Soybean plant response rating: 0
[4]; [18]
  Soybean plant response rating: 40
[4]; [19]
  Soybean plant response rating: 70
[4]; [20]
  Plant response rating, Soybean: 25
[5]; [17]
  Velvetleaf plant response rating: 20
[5]; [18]
  Velvetleaf plant response rating: 100
[5]; [19]
  Velvetleaf plant response rating: 100
[5]; [20]
  Plant response rating, Velvetleaf: 70
[6]; postemergence
  Plant response rating (0 to 100), Lambsquarters: 5
[6]; [16]
  Plant response rating, Lambsquarters: 80
[6]; Postemergence, 62 g ai/ha
  Plant response rating, Lambsquarters: 50
[7]; [17]
  Pigweed plant response rating: 75
[7]; [18]
  Pigweed plant response rating: 100
[7]; [19]
  Pigweed plant response rating: 100
[7]; [20]
  Plant response rating, Pigweed: 100
[8]; [17]
  Nutsedge, Yellow plant response rating: 0
[8]; [18]
  Nutsedge, Yellow plant response rating: 10
[8]; [19]
  Nutsedge, Yellow plant response rating: 40
[8]; [20]
  Plant response rating, Nutsedge, Yellow: 5
[9]; postemergence
  Plant response rating (0 to 100), Oat, Wild: 5
[9]; [16]
  Plant response rating, Oat, Wild: 15
[9]; Postemergence, 62 g ai/ha
  Plant response rating, Oat, Wild: 5
[10]; postemergence
  Plant response rating (0 to 100), Blackgrass: 0
[10]; [16]
  Plant response rating, Blackgrass: 25
[10]; [21]
  Plant response rating, Blackgrass: 5
[10]; Postemergence, 62 g ai/ha
  Plant response rating, Blackgrass: 10
[11]; postemergence
  Plant response rating (0 to 100), Pigweed: 80
[11]; [16]
  Plant response rating, Pigweed: 95
[11]; Postemergence, 62 g ai/ha
  Plant response rating, Pigweed: 90
[12]; postemergence
  Plant response rating (0 to 100), Wheat: 0
[12]; [16]
  Plant response rating, Wheat: 5
[12]; Postemergence, 62 g ai/ha
  Plant response rating, Wheat: 5
[13]
  Plant response rating, Rice: 0
[14]; 1000 g ai/ha, 0 to 100 scale, 0 no effect, 100 complete control, approx. 10 days
  Foxtail, Giant plant response rating: 100

## FCc1cccc(Oc2ncc(Br)cn2)c1-n1cc(C(F)(F)F)cn1 [Compound 120]
[15]; 16 g ai/ha, postemergence, 0 is no effect, 100 is complete control
  Plant response rating (0 to 100), Nutsedge, Yellow: 0
[15]; [16]
  Plant response rating, Nutsedge, Yellow: 25
[15]; Postemergence, 62 g ai/ha
  Plant response rating, Nutsedge, Yellow: 10
[2]; postemergence
  Plant response rating (0 to 100), Ryegrass, Italian: 0
[2]; [16]
  Plant response rating, Ryegrass, Italian: 5
[2]; Postemergence, 62 g ai/ha
  Plant response rating, Ryegrass, Italian: 0
[3]; postemergence
  Plant response rating (0 to 100), Ragweed: 10
[3]; [16]
  Plant response rating, Ragweed: 60
[3]; Postemergence, 62 g ai/ha
  Plant response rating, Ragweed: 25
[6]; postemergence
  Plant response rating (0 to 100), Lambsquarters: 55
[6]; [16]
  Plant response rating, Lambsquarters: 85
[6]; Postemergence, 62 g ai/ha
  Plant response rating, Lambsquarters: 70
[9]; postemergence
  Plant response rating (0 to 100), Oat, Wild: 0
[9]; [16]
  Plant response rating, Oat, Wild: 5
[9]; Postemergence, 62 g ai/ha
  Plant response rating, Oat, Wild: 5
[10]; postemergence
  Plant response rating (0 to 100), Blackgrass: 0
[10]; [16]
  Plant response rating, Blackgrass: 30
[10]; [21]
  Plant response rating, Blackgrass: 5
[10]; Postemergence, 62 g ai/ha
  Plant response rating, Blackgrass: 5
[11]; postemergence
  Plant response rating (0 to 100), Pigweed: 40
[11]; [16]
  Plant response rating, Pigweed: 95
[11]; Postemergence, 62 g ai/ha
  Plant response rating, Pigweed: 85
[12]; postemergence
  Plant response rating (0 to 100), Wheat: 0
[12]; [16]
  Plant response rating, Wheat: 0
[12]; Postemergence, 62 g ai/ha
  Plant response rating, Wheat: 0
[13]
  Plant response rating, Rice: 0
[14]; 31 g ai/ha
  Foxtail, Giant plant response rating (0 to 100 scale): 50
[14]; 125 g ai/ha, 0 to 100 scale where 0 is no effect and 100 is complete control
  Plant response rating, Foxtail, Giant: 100
